In ChEMBL document CHEMBL4334526, “Synthesis of Peptoid-Based Class I-Selective Histone Deacetylase Inhibitors with Chemosensitizing Properties” (J Med Chem, 2019):
pIC50: −log10 of the molar value.

What was measured:
[1] = target: T1, Class 1 histone deacetylase (Homo sapiens, UniProt Q13547+O15379+Q92769+Q9BY41); test: Inhibition of class 1 HDAC in human Cal27CisR cells assessed as potentiation of cisplatin-induced cytotoxicity by measuring combination index at […] in presence of 32 uM cisplatin by MTT assay based Chou-Talalay analysis; assay type: cell-based
Histone deacetylase [2] = test: Inhibition of HDAC in human CAL27 cells using Boc-Lys(epsilon-Ac)-AMC as substrate preincubated for 18 hrs followed by substrate addition and measured after 3 hrs by fluorescence assay; assay type: cell-based
Histone deacetylase 8 = target: T2, Histone deacetylase 8 (Homo sapiens, UniProt Q9BY41); test: Inhibition of recombinant human C-terminal His-fusion tagged/N-terminal Strep-2 tagged HDAC8 (1 to 377 residues) expressed in insect cells using Boc-Lys(TFa)-AMC as substrate preincubated for 5 mins followed by substrate addition measured after 90 mins by fluorescence assay
T2 sequence (Q9BY41 whole entry): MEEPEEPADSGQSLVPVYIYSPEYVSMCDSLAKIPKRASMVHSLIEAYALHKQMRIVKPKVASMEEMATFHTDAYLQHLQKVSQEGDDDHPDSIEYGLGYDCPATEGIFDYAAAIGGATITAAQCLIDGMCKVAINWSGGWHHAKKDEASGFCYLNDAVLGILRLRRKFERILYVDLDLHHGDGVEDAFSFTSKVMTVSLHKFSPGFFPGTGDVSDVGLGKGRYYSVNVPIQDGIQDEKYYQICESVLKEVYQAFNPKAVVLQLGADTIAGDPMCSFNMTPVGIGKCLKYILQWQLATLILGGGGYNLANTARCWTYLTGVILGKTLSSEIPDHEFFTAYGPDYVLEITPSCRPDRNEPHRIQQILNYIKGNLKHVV

[3] = target: T1, Class 1 histone deacetylase; test: Inhibition of class 1 HDAC in human Cal27CisR cells assessed as potentiation of cisplatin-induced cytotoxicity by measuring combination index at 1 uM in presence of 32 uM cisplatin by MTT assay based Chou-Talalay analysis; assay type: cell-based
[4] = target: T3, Protein deacetylase HDAC6 (Homo sapiens, UniProt Q9UBN7); test: Inhibition of human full length N-terminal GST-tagged HDAC6 expressed in baculovirus infected Sf9 insect cells ZMAL as substrate incubated for 90 mins by fluorescence assay; assay type: cell-based
T3 sequence (Q9UBN7 whole entry): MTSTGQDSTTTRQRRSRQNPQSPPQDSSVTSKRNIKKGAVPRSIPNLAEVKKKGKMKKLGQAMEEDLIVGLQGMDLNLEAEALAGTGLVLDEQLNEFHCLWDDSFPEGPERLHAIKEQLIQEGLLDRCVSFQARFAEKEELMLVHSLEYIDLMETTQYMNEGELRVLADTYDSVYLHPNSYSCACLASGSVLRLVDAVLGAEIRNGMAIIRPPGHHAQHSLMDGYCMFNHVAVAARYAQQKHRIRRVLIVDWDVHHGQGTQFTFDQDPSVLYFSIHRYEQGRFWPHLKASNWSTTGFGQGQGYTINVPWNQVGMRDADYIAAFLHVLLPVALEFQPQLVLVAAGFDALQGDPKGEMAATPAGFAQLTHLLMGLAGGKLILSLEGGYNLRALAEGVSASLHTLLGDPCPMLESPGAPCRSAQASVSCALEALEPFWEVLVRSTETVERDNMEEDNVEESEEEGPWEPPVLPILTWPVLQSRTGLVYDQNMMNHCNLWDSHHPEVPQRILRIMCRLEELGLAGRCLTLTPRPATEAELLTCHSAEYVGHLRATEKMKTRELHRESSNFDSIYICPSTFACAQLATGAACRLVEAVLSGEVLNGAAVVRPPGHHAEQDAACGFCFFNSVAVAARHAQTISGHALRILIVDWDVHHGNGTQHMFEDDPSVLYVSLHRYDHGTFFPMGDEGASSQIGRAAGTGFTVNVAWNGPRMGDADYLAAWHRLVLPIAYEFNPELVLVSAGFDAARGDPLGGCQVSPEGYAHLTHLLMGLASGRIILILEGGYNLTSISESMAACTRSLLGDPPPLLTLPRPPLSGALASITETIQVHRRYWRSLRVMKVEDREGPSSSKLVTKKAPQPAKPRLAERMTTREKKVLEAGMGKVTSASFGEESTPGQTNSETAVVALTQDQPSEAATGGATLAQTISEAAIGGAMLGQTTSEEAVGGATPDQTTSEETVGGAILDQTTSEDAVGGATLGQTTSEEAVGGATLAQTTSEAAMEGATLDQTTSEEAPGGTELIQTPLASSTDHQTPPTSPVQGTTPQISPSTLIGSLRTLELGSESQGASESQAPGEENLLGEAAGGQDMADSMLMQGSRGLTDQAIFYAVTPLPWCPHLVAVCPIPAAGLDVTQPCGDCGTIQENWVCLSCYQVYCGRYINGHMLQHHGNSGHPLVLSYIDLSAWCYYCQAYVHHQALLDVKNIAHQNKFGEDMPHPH

Histone deacetylase [5] = test: Inhibition of HDAC in human A2780 cells using Boc-Lys(epsilon-Ac)-AMC as substrate preincubated for 18 hrs followed by substrate addition and measured after 3 hrs by fluorescence assay; assay type: cell-based
A2780 = test: Cytotoxicity against human A2780 cells assessed as reduction in cell survival measured after 72 hrs by MTT assay; assay type: functional, cell-based; conditions: A2780, 72 h
[6] = target: T1, Class 1 histone deacetylase; test: Inhibition of class 1 HDAC in human Cal27CisR cells assessed as potentiation of cisplatin-induced cytotoxicity by measuring combination index at […] in presence of 100 uM cisplatin by MTT assay based Chou-Talalay analysis; assay type: cell-based
[7] = target: Histone deacetylase 3/Nuclear receptor corepressor 2 (HDAC3/NCoR2) (Homo sapiens) (UniProt O15379+Q9Y618); test: Inhibition of human recombinant full length C-terminal His-tagged HDAC3 (1 to 428 residues)/N-terminal GST-tagged NCOR2 (395 to 489 residues) expressed in baculovirus infected Sf9 insect cells at 10 uM using Boc-Lys(epsilon-acetyl)-AMC as substrate incubated for 90 mins by fluorescence assay relative to control
Histone deacetylase 4 = Histone deacetylase 4 (Homo sapiens, UniProt P56524); test: Inhibition of recombinant human N-terminal GST-fused and C-terminal His-tagged HDAC4 (627 to 1084 residues) expressed in baculovirus infected insect cells using Boc-Lys(TFa)-AMC as substrate preincubated for 5 mins followed by substrate addition and measured after 90 mins by fluorescence assay
[8] = target: T1, Class 1 histone deacetylase; test: Inhibition of class 1 HDAC in human Cal27CisR cells assessed as potentiation of cisplatin-induced cytotoxicity by measuring combination index at […] in presence of 10 uM cisplatin by MTT assay based Chou-Talalay analysis; assay type: cell-based
CAL-27 = test: Cytotoxicity against human CAL27 cells assessed as reduction in cell survival measured after 72 hrs by MTT assay; assay type: functional, cell-based; conditions: CAL-27, 72 h
Histone deacetylase 1 = Histone deacetylase 1 (Homo sapiens, UniProt Q13547); test: Inhibition of recombinant human full length C-terminal His/FLAG-tagged HDAC1 expressed in baculovirus infected Sf9 insect cells using ZMAL as substrate incubated for 90 mins by fluorescence assay
[9] = target: T1, Class 1 histone deacetylase
[10] = target: T1, Class 1 histone deacetylase; conditions: CAL-27
Description: Inhibition of class 1 HDAC in human CAL27 cells assessed as potentiation of cisplatin-induced cytotoxicity by measuring combination index at 0.5 uM in presence of 10 uM cisplatin by MTT assay based Chou-Talalay analysis

T1 sequence (O15379 whole entry, looked up, one chain of several): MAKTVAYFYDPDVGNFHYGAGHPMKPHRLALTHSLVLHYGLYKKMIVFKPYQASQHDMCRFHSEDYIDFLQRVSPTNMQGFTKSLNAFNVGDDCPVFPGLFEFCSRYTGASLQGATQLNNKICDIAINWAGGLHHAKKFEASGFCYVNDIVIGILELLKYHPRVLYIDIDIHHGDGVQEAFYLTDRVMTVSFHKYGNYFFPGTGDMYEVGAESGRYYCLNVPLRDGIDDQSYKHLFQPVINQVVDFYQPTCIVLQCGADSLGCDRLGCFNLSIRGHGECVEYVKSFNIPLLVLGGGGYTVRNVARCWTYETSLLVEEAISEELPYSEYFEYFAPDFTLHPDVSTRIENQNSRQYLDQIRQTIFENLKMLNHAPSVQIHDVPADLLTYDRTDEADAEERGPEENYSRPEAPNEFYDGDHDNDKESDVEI
T1 sequence (Q13547 whole entry, looked up, one chain of several): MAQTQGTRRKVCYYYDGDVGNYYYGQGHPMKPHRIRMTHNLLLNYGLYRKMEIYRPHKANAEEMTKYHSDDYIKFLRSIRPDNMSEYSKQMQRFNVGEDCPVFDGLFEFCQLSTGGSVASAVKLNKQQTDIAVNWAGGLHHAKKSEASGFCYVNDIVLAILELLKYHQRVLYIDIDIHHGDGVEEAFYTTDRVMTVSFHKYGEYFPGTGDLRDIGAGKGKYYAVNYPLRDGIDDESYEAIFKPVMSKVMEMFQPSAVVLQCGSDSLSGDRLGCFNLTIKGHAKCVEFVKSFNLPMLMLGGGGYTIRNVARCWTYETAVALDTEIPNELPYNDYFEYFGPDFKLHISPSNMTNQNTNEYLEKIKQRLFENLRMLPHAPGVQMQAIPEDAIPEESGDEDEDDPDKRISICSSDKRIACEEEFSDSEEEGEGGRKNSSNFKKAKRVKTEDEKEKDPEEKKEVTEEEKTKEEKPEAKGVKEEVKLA
T1 sequence (Q92769 whole entry, looked up, one chain of several): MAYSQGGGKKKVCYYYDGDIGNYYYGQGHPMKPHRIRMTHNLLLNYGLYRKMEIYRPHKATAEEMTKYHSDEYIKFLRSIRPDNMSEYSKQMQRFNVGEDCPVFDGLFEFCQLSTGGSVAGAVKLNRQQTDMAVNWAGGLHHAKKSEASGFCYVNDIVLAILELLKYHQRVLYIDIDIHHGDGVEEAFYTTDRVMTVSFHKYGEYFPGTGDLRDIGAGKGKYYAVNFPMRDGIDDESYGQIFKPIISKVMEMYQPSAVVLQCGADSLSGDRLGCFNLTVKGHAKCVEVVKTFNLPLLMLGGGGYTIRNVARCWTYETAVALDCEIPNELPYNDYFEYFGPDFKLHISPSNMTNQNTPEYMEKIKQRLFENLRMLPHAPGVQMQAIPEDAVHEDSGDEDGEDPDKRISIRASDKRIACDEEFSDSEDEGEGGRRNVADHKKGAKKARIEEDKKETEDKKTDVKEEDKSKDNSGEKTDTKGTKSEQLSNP
Histone deacetylase 1, sequence (Q13547 whole entry): as the sequence (Q13547 whole entry, looked up, one chain of several) above
Histone deacetylase 4, sequence (P56524 whole entry, the tested form may be a part): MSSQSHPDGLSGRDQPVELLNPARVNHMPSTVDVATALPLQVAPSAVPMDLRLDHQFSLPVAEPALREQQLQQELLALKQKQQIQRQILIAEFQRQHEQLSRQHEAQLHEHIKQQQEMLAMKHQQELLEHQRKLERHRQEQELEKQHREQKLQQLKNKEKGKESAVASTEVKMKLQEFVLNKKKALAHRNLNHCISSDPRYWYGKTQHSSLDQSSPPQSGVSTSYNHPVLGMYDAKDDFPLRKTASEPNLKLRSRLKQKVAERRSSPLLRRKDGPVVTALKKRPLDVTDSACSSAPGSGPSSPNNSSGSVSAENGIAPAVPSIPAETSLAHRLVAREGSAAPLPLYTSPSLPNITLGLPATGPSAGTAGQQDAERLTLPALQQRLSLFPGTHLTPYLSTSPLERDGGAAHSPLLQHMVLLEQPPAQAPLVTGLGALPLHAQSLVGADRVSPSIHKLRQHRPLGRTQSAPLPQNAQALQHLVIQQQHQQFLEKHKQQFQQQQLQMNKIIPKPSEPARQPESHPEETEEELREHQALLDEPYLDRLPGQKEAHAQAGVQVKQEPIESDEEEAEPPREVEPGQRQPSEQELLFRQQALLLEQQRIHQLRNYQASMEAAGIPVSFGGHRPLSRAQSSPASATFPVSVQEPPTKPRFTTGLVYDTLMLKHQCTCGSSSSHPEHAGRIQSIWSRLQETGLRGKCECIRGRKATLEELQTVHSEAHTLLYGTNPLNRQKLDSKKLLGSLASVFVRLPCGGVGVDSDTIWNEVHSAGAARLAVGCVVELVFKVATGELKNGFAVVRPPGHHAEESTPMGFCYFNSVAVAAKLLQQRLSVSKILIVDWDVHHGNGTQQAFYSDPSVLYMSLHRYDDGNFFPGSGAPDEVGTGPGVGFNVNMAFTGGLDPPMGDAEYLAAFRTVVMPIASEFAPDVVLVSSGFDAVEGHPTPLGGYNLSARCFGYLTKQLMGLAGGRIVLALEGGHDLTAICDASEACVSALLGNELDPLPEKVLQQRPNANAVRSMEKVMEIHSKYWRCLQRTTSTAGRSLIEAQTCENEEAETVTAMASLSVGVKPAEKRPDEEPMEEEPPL

IC50 (Histone deacetylase [2]) [µM]	pIC50 (Histone deacetylase 8)	pIC50 [4]	IC50 (Histone deacetylase [5]) [µM]	pIC50 (Histone deacetylase 4)	pIC50 (Histone deacetylase 1)	Compound	CI [1]	CI [3]	pIC50 (A2780)	CI [6]	inhibition [7] [%]	CI [8]	pIC50 (CAL-27)	CI [9]	CI [10]
0.47	< 5.00	< 5.00	1.43	< 5.00	7.24	Cc1cc(C)cc(C(=O)N(CCCCCC(=O)Nc2cc(-c3ccccc3)ccc2N)CC(=O)NCc2ccccc2)c1	0.74	< 0.2	4.77	0.09	20	< 0.2	4.72		
0.11	5.04	< 5.00	0.48	< 5.00	7.42	CN(C)c1ccc(C(=O)N(CC(=O)NCc2ccccc2)Cc2ccc(C(=O)Nc3ccccc3N)cc2)cc1			5.62				5.80	0.03	0.07

Compound	IC50 (Histone deacetylase [2]) [µM]	pIC50 (Histone deacetylase 8)	pIC50 [4]	IC50 (Histone deacetylase [5]) [µM]	pIC50 (Histone deacetylase 4)	pIC50 (Histone deacetylase 1)	CI [1]	CI [3]	pIC50 (A2780)	CI [6]	inhibition [7] [%]	CI [8]	pIC50 (CAL-27)	CI [9]	CI [10]
Cc1cc(C)cc(C(=O)N(CC(=O)NCc2ccccc2)Cc2ccc(C(=O)Nc3cc(-c4ccccc4)ccc3N)cc2)c1	0.63	5.50	< 5.00	1.72	< 5.00	7.29	0.18	0.27		0.19	< 15	0.31	5.05	< 0.2	0.18
